Assay results from patent publication US7118895B2, “Process for producing aglycon by using diglycosidase and flavor-improved food containing the aglycon and converting agent to be used in the process” (Amano Enzyme Inc., priority 2000, dated 2006).

System: Crude diglycosidase
Experiment: Examination of pH in the conversion into isoflavone aglycons by diglycosidase using soybean materials
Format: biochemical, Penicillium multicolor IAM7153
Conditions: for existing ratio of aglycon of each isoflavone family / Decomposition efficiency of glycitin family in roasted soy flour / Decomposition efficiency of glycitin family in soymilk: 55° C.
In short: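 Each soybean material (50 mg) is suspended and set to a pH between 2 and 11. Crude diglycosidase, adjusted to 1.88 AU/mL in enzyme solution of the same pH, is added, and the mixture is incubated at 55° C. Ethanol is added at 0, 1, 3 and 6 h, then supernatants go to HPLC.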

In the case of `COc1cc2c(=O)c(-c3ccc(O)cc3)coc2cc1O` [glycitein], the “existing ratio of aglycon of each isoflavone family” value (concentrated soybean protein, pH 3.7 for 6 hours) is reported as 78%, the “existing ratio of aglycon of each isoflavone family” value (defatted soybean, pH 3.4 for 6 hours) is reported as 68% and the “Decomposition efficiency of glycitin family in concentrated soybean protein” value (pH1.6, heat treatment of enzyme: no, reaction time 0 h) is reported as 11.3%. The “Decomposition efficiency of glycitin family in concentrated soybean protein” value (pH1.6, heat treatment of enzyme: no, reaction time 1 h) was 11.6%, the “Decomposition efficiency of glycitin family in concentrated soybean protein” value (pH1.6, heat treatment of enzyme: no, reaction time 3 h) was 11.7% and the “Decomposition efficiency of glycitin family in concentrated soybean protein” value (pH1.6, heat treatment of enzyme: no, reaction time 6 h) was 11.7%. The “Decomposition efficiency of glycitin family in concentrated soybean protein” value (pH1.6, heat treatment of enzyme: yes, reaction time 6 h) was 10.8%, the “Decomposition efficiency of glycitin family in roasted soy flour” value (pH2, heat treatment of enzyme no, reaction time 0 h) was 7.9 and the “Decomposition efficiency of glycitin family in roasted soy flour” value (pH2, heat treatment of enzyme no, reaction time 1 h) was 9.4. For the same molecule, the “Decomposition efficiency of glycitin family in roasted soy flour” value (pH2, heat treatment of enzyme no, reaction time 3 h) was 9.5, the “Decomposition efficiency of glycitin family in roasted soy flour” value (pH2, heat treatment of enzyme no, reaction time 6 h) was 10.1 and the “Decomposition efficiency of glycitin family in roasted soy flour” value (pH2, heat treatment of enzyme yes, reaction time 6 h) was 10.4. The “Decomposition efficiency of glycitin family in soymilk” value (“Decomposition efficiency … in soymilk” for short) (pH2.3, heat treatment of enzyme no, reaction time 0 h) was 7.2, the “Decomposition efficiency … in soymilk” value (pH2.3, heat treatment of enzyme no, reaction time 1 h) was 48.7 and the “Decomposition efficiency … in soymilk” value (pH2.3, heat treatment of enzyme no, reaction time 3 h) was 52.3. For the same molecule, the “Decomposition efficiency … in soymilk” value (pH2.3, heat treatment of enzyme no, reaction time 6 h) was 53.5, the “Decomposition efficiency … in soymilk” value (pH2.3, heat treatment of enzyme yes, reaction time 6 h) was 6.9 and the “Decomposition efficiency of glycitin family in defatted soybean” value (pH2.6, heat treatment of enzyme: no, reaction time 0 h) was “not detected”. For the same molecule, the “Decomposition efficiency of glycitin family in defatted soybean” value (pH2.6, heat treatment of enzyme: no, reaction time 1 h) was “not detected”, the “Decomposition efficiency of glycitin family in defatted soybean” value (pH2.6, heat treatment of enzyme: no, reaction time 3 h) was “not detected” and the “Decomposition efficiency of glycitin family in defatted soybean” value (pH2.6, heat treatment of enzyme: no, reaction time 6 h) was “not detected”. The “Decomposition efficiency of glycitin family in defatted soybean” value (pH2.6, heat treatment of enzyme: yes, reaction time 6 h) was “not detected”, the “Decomposition efficiency of glycitin family in concentrated soybean protein” value (pH2.7, heat treatment of enzyme: no, reaction time 0 h) was 11.3% and the “Decomposition efficiency of glycitin family in concentrated soybean protein” value (pH2.7, heat treatment of enzyme: no, reaction time 1 h) was 25.0%. For the same molecule, the “Decomposition efficiency of glycitin family in concentrated soybean protein” value (pH2.7, heat treatment of enzyme: no, reaction time 3 h) was 25.7%, the “Decomposition efficiency of glycitin family in concentrated soybean protein” value (pH2.7, heat treatment of enzyme: no, reaction time 6 h) was 29.2% and the “Decomposition efficiency of glycitin family in concentrated soybean protein” value (pH2.7, heat treatment of enzyme: yes, reaction time 6 h) was 11.5%. For the same molecule, the “Decomposition efficiency of glycitin family in roasted soy flour” value (pH3, heat treatment of enzyme no, reaction time 0 h) was 7.9, the “Decomposition efficiency of glycitin family in roasted soy flour” value (pH3, heat treatment of enzyme no, reaction time 1 h) was 61.3 and the “Decomposition efficiency of glycitin family in roasted soy flour” value (pH3, heat treatment of enzyme no, reaction time 3 h) was 69.2. The “Decomposition efficiency of glycitin family in roasted soy flour” value (pH3, heat treatment of enzyme no, reaction time 6 h) was 68.3, the “Decomposition efficiency of glycitin family in roasted soy flour” value (pH3, heat treatment of enzyme yes, reaction time 6 h) was 9.3 and the “Decomposition efficiency of glycitin family in defatted soybean” value (pH3.4, heat treatment of enzyme: no, reaction time 0 h) was “not detected”. For the same molecule, the “Decomposition efficiency of glycitin family in defatted soybean” value (pH3.4, heat treatment of enzyme: no, reaction time 1 h) was “not detected”, the “Decomposition efficiency of glycitin family in defatted soybean” value (pH3.4, heat treatment of enzyme: no, reaction time 3 h) was “not detected” and the “Decomposition efficiency of glycitin family in defatted soybean” value (pH3.4, heat treatment of enzyme: no, reaction time 6 h) was “not detected”. The “Decomposition efficiency of glycitin family in defatted soybean” value (pH3.4, heat treatment of enzyme: yes, reaction time 6 h) was “not detected”, the “Decomposition efficiency … in soymilk” value (pH3.5, heat treatment of enzyme no, reaction time 0 h) was 7.2 and the “Decomposition efficiency … in soymilk” value (pH3.5, heat treatment of enzyme no, reaction time 1 h) was 78.1. For the same molecule, the “Decomposition efficiency … in soymilk” value (pH3.5, heat treatment of enzyme no, reaction time 3 h) was 100.0, the “Decomposition efficiency … in soymilk” value (pH3.5, heat treatment of enzyme no, reaction time 6 h) was 100.0 and the “Decomposition efficiency … in soymilk” value (pH3.5, heat treatment of enzyme yes, reaction time 6 h) was 7.6. The “Decomposition efficiency of glycitin family in concentrated soybean protein” value (pH3.7, heat treatment of enzyme: no, reaction time 0 h) was 11.1%, the “Decomposition efficiency of glycitin family in concentrated soybean protein” value (pH3.7, heat treatment of enzyme: no, reaction time 1 h) was 66.7% and the “Decomposition efficiency of glycitin family in concentrated soybean protein” value (pH3.7, heat treatment of enzyme: no, reaction time 3 h) was 73.5%. The “Decomposition efficiency of glycitin family in concentrated soybean protein” value (pH3.7, heat treatment of enzyme: no, reaction time 6 h) was 77.5%, the “Decomposition efficiency of glycitin family in concentrated soybean protein” value (pH3.7, heat treatment of enzyme: yes, reaction time 6 h) was 11.3% and the “Decomposition efficiency of glycitin family in roasted soy flour” value (pH4, heat treatment of enzyme no, reaction time 0 h) was 8.6. The “Decomposition efficiency of glycitin family in roasted soy flour” value (pH4, heat treatment of enzyme no, reaction time 1 h) was 81.2, the “Decomposition efficiency of glycitin family in roasted soy flour” value (pH4, heat treatment of enzyme no, reaction time 3 h) was 91.8 and the “Decomposition efficiency of glycitin family in roasted soy flour” value (pH4, heat treatment of enzyme no, reaction time 6 h) was 100.0. For the same molecule, the “Decomposition efficiency of glycitin family in roasted soy flour” value (pH4, heat treatment of enzyme yes, reaction time 6 h) was 9.0, the “Decomposition efficiency … in soymilk” value (pH4.8, heat treatment of enzyme no, reaction time 0 h) was 6.2 and the “Decomposition efficiency … in soymilk” value (pH4.8, heat treatment of enzyme no, reaction time 1 h) was 63.0. For the same molecule, the “Decomposition efficiency … in soymilk” value (pH4.8, heat treatment of enzyme no, reaction time 3 h) was 78.9, the “Decomposition efficiency … in soymilk” value (pH4.8, heat treatment of enzyme no, reaction time 6 h) was 91.7 and the “Decomposition efficiency … in soymilk” value (pH4.8, heat treatment of enzyme yes, reaction time 6 h) was 6.5. For the same molecule, the “Decomposition efficiency of glycitin family in defatted soybean” value (pH4.8, heat treatment of enzyme: no, reaction time 0 h) was 36.0%, the “Decomposition efficiency of glycitin family in defatted soybean” value (pH4.8, heat treatment of enzyme: no, reaction time 1 h) was 59.9% and the “Decomposition efficiency of glycitin family in defatted soybean” value (pH4.8, heat treatment of enzyme: no, reaction time 3 h) was 62.5%. For the same molecule, the “Decomposition efficiency of glycitin family in defatted soybean” value (pH4.8, heat treatment of enzyme: no, reaction time 6 h) was 68.1% and the “Decomposition efficiency of glycitin family in defatted soybean” value (pH4.8, heat treatment of enzyme: yes, reaction time 6 h) was 43.8%.
